# Experimental data taken from ChEMBL document CHEMBL5365460, “Structural Mechanism and Inhibitors Targeting EGFR Exon 20 Insertion (Ex20ins) Mutations” (J Med Chem, 2023).
# Experiments:
# BaF3 [1] = test: Antiproliferative activity against mouse BaF3 cells harboring wild type EGFR incubated for 3 days by Cell Titer-Glo assay; format: functional, cell-based; conditions: BaF3, 72 h
# [2] = Antiproliferative activity against mouse Ba/F3 EGFR-A763_Y764insFQEA cells incubated for 3 days by Cell Titer-Glo assay; format: functional, cell-based; conditions: 72 h
# [3] = Antiproliferative activity against mouse Ba/F3 EGFR-V769_D770insASV cells incubated for 3 days by Cell Titer-Glo assay; format: functional, cell-based; conditions: 72 h
# [4] = Antiproliferative activity against mouse Ba/F3 EGFR-D770-N771ins_SVD cells incubated for 3 days by Cell Titer-Glo assay; format: functional, cell-based; conditions: 72 h
# BaF3 [5] = test: Antiproliferative activity against mouse BaF3 cells harboring EGFR-D770-N771insNPG mutant incubated for 3 days by Cell Titer-Glo assay; format: functional, cell-based; conditions: BaF3, 72 h
# [6] = Antiproliferative activity against mouse Ba/F3 EGFR-H773-V774ins_NPH cells incubated for 3 days by Cell Titer-Glo assay; format: functional, cell-based; conditions: 72 h
# [7] = Selectivity index, ratio of IC50 for antiproliferative activity against mouse BaF3 cells harboring wild type EGFR to IC50 for antiproliferative activity against mouse Ba/F3 EGFR-V769_D770insASV cells; format: functional
# [8] = Selectivity index, ratio of IC50 for antiproliferative activity against mouse BaF3 cells harboring wild type EGFR to IC50 for antiproliferative activity against mouse Ba/F3 EGFR-A763_Y764insFQEA cells; format: functional
# [9] = Selectivity index, ratio of IC50 for antiproliferative activity against mouse BaF3 cells harboring wild type EGFR to IC50 for antiproliferative activity against mouse Ba/F3 EGFR-D770-N771ins_SVD cells; format: functional
# [10] = Selectivity index, ratio of IC50 for antiproliferative activity against mouse BaF3 cells harboring wild type EGFR to IC50 for antiproliferative activity against mouse BaF3 cells harboring EGFR-D770-N771insNPG mutant; format: functional
# [11] = Selectivity index, ratio of IC50 for antiproliferative activity against mouse BaF3 cells harboring wild type EGFR to IC50 for antiproliferative activity against mouse Ba/F3 EGFR-H773-V774ins_NPH cells; format: functional
# NIH3T3 [12] = test: Antiproliferative activity against mouse NIH/3T3 cells harboring wild type EGFR incubated for 72 hrs by Cell Titer-Glo assay; format: functional, cell-based; conditions: NIH3T3, 72 h
# NIH3T3 [13] = test: Antiproliferative activity against mouse NIH/3T3 cells harboring EGFR-A763_Y764insFQEA incubated for 72 hrs by Cell Titer-Glo assay; format: functional, cell-based; conditions: NIH3T3, 72 h
# NIH3T3 [14] = test: Antiproliferative activity against mouse NIH/3T3 cells harboring EGFR-V769_D770insASV incubated for 72 hrs by Cell Titer-Glo assay; format: functional, cell-based; conditions: NIH3T3, 72 h
# NIH3T3 [15] = test: Antiproliferative activity against mouse NIH/3T3 cells harboring EGFR-D770-N771ins_SVD incubated for 72 hrs by Cell Titer-Glo assay; format: functional, cell-based; conditions: NIH3T3, 72 h
# NIH3T3 [16] = test: Antiproliferative activity against mouse NIH/3T3 cells harboring EGFR-H773-V774ins_NPH incubated for 72 hrs by Cell Titer-Glo assay; format: functional, cell-based; conditions: NIH3T3, 72 h
# BaF3 [17] = test: Antiproliferative activity against mouse Ba/F3 cells harboring EGFR-D770-N771ins_G mutant incubated for 3 days by Cell Titer-Glo assay; format: functional, cell-based; conditions: BaF3, 72 h
# BaF3 [18] = test: Antiproliferative activity against mouse Ba/F3 cells harboring EGFR-H773-V774ins_PH mutant incubated for 3 days by Cell Titer-Glo assay; format: functional, cell-based; conditions: BaF3, 72 h
# [19] = target: Epidermal growth factor receptor (Homo sapiens, UniProt P00533); test: Inhibition of wildtype EGFR (unknown origin) phosphorylation
# Sequence of Epidermal growth factor receptor (Homo sapiens, UniProt P00533) (P00533 whole entry): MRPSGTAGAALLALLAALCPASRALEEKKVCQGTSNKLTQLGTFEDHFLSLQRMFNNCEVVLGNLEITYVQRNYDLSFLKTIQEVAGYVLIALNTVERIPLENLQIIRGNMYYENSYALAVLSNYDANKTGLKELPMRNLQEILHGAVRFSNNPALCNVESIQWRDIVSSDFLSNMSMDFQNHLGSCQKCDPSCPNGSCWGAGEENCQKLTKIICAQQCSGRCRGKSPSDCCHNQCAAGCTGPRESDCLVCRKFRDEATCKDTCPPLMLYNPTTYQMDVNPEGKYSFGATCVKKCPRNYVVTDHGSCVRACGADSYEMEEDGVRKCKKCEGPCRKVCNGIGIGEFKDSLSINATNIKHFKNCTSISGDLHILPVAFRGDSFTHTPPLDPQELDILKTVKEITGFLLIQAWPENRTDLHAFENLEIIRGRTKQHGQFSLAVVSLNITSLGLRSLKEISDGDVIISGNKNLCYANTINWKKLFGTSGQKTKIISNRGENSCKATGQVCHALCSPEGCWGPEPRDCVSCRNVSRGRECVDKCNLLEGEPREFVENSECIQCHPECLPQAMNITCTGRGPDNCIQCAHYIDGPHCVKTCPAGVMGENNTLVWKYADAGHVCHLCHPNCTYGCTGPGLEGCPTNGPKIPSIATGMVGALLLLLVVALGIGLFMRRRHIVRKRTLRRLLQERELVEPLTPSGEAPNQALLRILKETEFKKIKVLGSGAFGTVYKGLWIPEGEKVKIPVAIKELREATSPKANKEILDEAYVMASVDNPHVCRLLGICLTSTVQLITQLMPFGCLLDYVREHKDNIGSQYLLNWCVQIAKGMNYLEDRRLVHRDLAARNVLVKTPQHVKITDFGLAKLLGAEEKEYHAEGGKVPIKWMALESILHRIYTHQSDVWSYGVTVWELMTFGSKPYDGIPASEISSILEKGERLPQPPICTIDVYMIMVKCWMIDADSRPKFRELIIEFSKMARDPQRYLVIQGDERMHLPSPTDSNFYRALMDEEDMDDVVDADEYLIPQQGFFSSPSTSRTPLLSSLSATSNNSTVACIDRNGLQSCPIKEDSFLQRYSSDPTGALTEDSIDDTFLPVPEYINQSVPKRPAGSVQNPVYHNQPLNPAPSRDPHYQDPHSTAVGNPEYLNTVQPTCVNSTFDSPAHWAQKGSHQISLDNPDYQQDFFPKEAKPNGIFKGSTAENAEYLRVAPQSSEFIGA
# [20] = target: Epidermal growth factor receptor (Homo sapiens, UniProt P00533, D770-N771INSNPG); test: Inhibition of EGFR-D770-N771insNPG mutant (unknown origin) phosphorylation
# Sequence of Epidermal growth factor receptor (Homo sapiens, UniProt P00533, D770-N771INSNPG) (P00533 whole entry, looked up, stated change not applied): as the sequence (P00533 whole entry) above
# [21] = Antiproliferative activity against mouse Ba/F3 EGFR-A763_Y764insFQEA cells incubated for 72 hrs by CCK-8 assay; format: functional, cell-based
# [22] = Antiproliferative activity against mouse Ba/F3 EGFR-V769_D770insASV cells incubated for 72 hrs by CCK-8 assay; format: functional, cell-based
# [23] = Antiproliferative activity against mouse Ba/F3 EGFR-D770-N771ins_SVD cells incubated for 72 hrs by CCK-8 assay; format: functional, cell-based
# [24] = Antiproliferative activity against mouse Ba/F3 EGFR-H773-V774ins_NPH cells incubated for 72 hrs by CCK-8 assay; format: functional, cell-based
# [25] = Antiproliferative activity against human CUTO14 cells harboring EGFR V769_D770insASV mutant incubated for 72 hrs by MTS assay; format: functional, cell-based; conditions: CUTO14, 72 h
# [26] = Antiproliferative activity against mouse Ba/F3 EGFR-D770-N771ins_SVD cells; format: functional, cell-based
# [27] = Antiproliferative activity against mouse Ba/F3 EGFR-V769_D770insASV cells; format: functional, cell-based
# [28] = Antiproliferative activity against mouse Ba/F3 EGFR-H773-V774ins_NPH cells; format: functional, cell-based
# [29] = Antiproliferative activity against mouse Ba/F3 EGFR-A763_Y764insFQEA cells; format: functional, cell-based
# BaF3 [30] = test: Antiproliferative activity against mouse BaF3 cells harboring EGFR exon 20 insertion mutant incubated for 72 hrs by Cell Titer-Glo assay; format: functional, cell-based; conditions: BaF3, 72 h
# BaF3 [31] = test: Potency index, ratio of afatinib IC50 to test compound IC50 for antiproliferative activity against mouse BaF3 cells harboring EGFR exon 20 insertion mutant incubated for 72 hrs by Cell Titer-Glo assay; format: functional
# [32] = Antiproliferative activity against human CUTO14 cells harboring EGFR V769_D770insASV mutant incubated for 72 hrs by Cell Titer-Glo assay; format: functional, cell-based; conditions: CUTO14, 72 h
# [33] = Antiproliferative activity against human YUL-0019 cells harboring EGFR N771delinsFH mutant incubated for 72 hrs by Cell Titer-Glo assay; format: functional, cell-based; conditions: YUL-0019, 72 h
# BaF3 [34] = test: Antiproliferative activity against mouse BaF3 cells harboring wild type EGFR incubated for 48 hrs by Cell Titer-Glo assay; format: functional, cell-based; conditions: BaF3, 48 h
# [35] = Antiproliferative activity against mouse Ba/F3 EGFR-V769_D770insASV cells incubated for 48 hrs by Cell Titer-Glo assay; format: functional, cell-based
# [36] = Antiproliferative activity against mouse Ba/F3 EGFR-D770-N771ins_SVD cells incubated for 48 hrs by Cell Titer-Glo assay; format: functional, cell-based
# BaF3 [37] = test: Antiproliferative activity against mouse BaF3 cells harboring EGFR-D770-N771insNPG mutant incubated for 48 hrs by Cell Titer-Glo assay; format: functional, cell-based; conditions: BaF3, 48 h
# BaF3 [38] = test: Antiproliferative activity against mouse BaF3 cells harboring wild type EGFR; format: functional, cell-based
# [39] = Metabolic stability in human hepatocytes assessed as intrinsic clearance measured per 10^6 cells at 100 uM measured upto 100 mins by LC-MS/MS analysis; format: ADME, cell-based, Hepatocyte; conditions: read-out: CLH
smiles,measurement,setting,value
C=CC(=O)Nc1cc(Nc2ncc(C(=O)OC(C)C)c(-c3cn(C)c4ccccc34)n2)c(OC)cc1N(C)CCN(C)C [MOBOCERTINIB],IC50,BaF3 [1],34.5 nM
same,IC50,[2],11.8 nM
same,IC50,[3],10.9 nM
same,IC50,[4],22.5 nM
same,IC50,BaF3 [5],4.3 nM
same,IC50,[6],18.1 nM
same,Ratio IC50,[7],3.17
same,Ratio IC50,[8],1.5
same,Ratio IC50,[9],1.5
same,Ratio IC50,[10],1.5
same,Ratio IC50,[11],1.5
C#Cc1cccc(Nc2ncnc3cc(OCCOC)c(OCCOC)cc23)c1 [ERLOTINIB],IC50,BaF3 [1],71 nM
same,IC50,[2],214 nM
same,IC50,[3],1340 nM
same,IC50,[4],3480 nM
same,IC50,BaF3 [5],2320 nM
same,IC50,[6],2700 nM
same,Ratio IC50,[7],0.05
C=CC(=O)N[C@H]1C=C(C)c2c(-c3cnc4ccccc4c3)c3c(N)ncnc3n2C1 [CLN-081],IC50,BaF3 [1],676 nM
same,IC50,[2],5 nM
same,IC50,[3],5 nM
same,IC50,[4],5 nM
same,IC50,[6],5 nM
same,IC50,NIH3T3 [12],368 nM
same,IC50,NIH3T3 [13],< 4.48 nM
same,IC50,NIH3T3 [14],78.2 nM
same,IC50,NIH3T3 [15],23.4 nM
same,IC50,NIH3T3 [16],66.7 nM
same,IC50,BaF3 [17],5 nM
same,IC50,BaF3 [18],5 nM
same,IC50,[19],8 nM
same,IC50,[20],7.4 nM
CN(C)C/C=C/C(=O)Nc1cc2c(Nc3ccc(F)c(Cl)c3)ncnc2cc1O[C@H]1CCOC1 [AFATINIB],IC50,BaF3 [1],3.8 nM
same,IC50,[2],2.7 nM
same,IC50,[3],46 nM
same,IC50,[4],163 nM
same,IC50,BaF3 [5],40 nM
same,IC50,[6],102 nM
same,Ratio IC50,[7],0.08
C=CC(=O)Nc1cc(Nc2nccc(-c3cn(C)c4ccccc34)n2)c(OC)cc1N(C)CCN(C)C [OSIMERTINIB],IC50,BaF3 [1],350 nM
same,IC50,[2],87 nM
same,IC50,[3],173 nM
same,IC50,[4],576 nM
same,IC50,BaF3 [5],57 nM
same,IC50,[6],469 nM
same,Ratio IC50,[7],2.02
CN(C)C/C=C/C(=O)Nc1cc2c(Nc3ccc(Cl)c(Br)c3)ncnc2cn1 [TH-4000E],IC50,[21],< 0.5 nM
same,IC50,[22],7.6 nM
same,IC50,[23],7.3 nM
same,IC50,[24],9.9 nM
same,IC50,[25],72 nM
COc1c(Cl)cccc1Nc1c(-c2ccncc2C#C[C@@]2(C)CCCN2C(=O)/C=C/CN(C)C)[nH]c2c1C(=O)NCC2,IC50,[26],6.22 nM
same,IC50,[27],5.62 nM
same,IC50,[28],16.7 nM
same,IC50,[29],7.7 nM
C=CC(=O)N1CCC(Oc2cc3c(Nc4ccc(Cl)c(Cl)c4F)ncnc3cc2OC)CC1 [POZIOTINIB],IC50,[21],0.7 nM
same,IC50,[22],4.8 nM
same,IC50,[23],2.7 nM
same,IC50,[24],2.2 nM
same,IC50,BaF3 [30],1 nM
same,Ratio IC50,BaF3 [31],~40
same,IC50,[32],1.8 nM
same,IC50,[33],0.3 nM
COc1c(F)cccc1Nc1c(-c2ccncc2OCC(C)(C)OC)[nH]c2c1C(=O)NCC2,Ratio IC50,[7],25.9
same,IC50,BaF3 [34],397 nM
same,IC50,[35],15.3 nM
same,IC50,[36],11.9 nM
same,IC50,BaF3 [37],12.8 nM
C=CC(=O)Nc1cc2c(Nc3ccc(OCc4ccccn4)c(Cl)c3)ncnc2cc1OCCN1CCOCC1 [TUXOBERTINIB],IC50,BaF3 [38],~1000 nM
same,IC50,[26],< 100 nM
C=CC(=O)Nc1cccc(N(C(=O)OCc2ccc(F)cc2)c2ccnc(Nc3cnn(C)c3)n2)c1,IC50,BaF3 [38],7.6 nM
same,IC50,[26],15 nM
same,Ratio IC50,[7],0.22
same,IC50,[27],34 nM
C=CC(=O)Nc1cc(Nc2nccc(Nc3cc(Cl)c(F)cc3C(C)(C)O)n2)c(OC)cc1N1CC[C@@H](N(C)C)C1 [SUNVOZERTINIB],IC50,BaF3 [1],12.7 nM
same,IC50,[3],22.1 nM
same,IC50,[6],29.6 nM
same,Ratio IC50,[7],0.57
same,hepatocyte CLint at 100 µM,[39],2.77 µL/min/1e6 cells
